Reference: the NIST ThermoML archive (doi:10.1016/j.jct.2019.02.028)

Experiment: xn = mol fraction of the nth substance listed
Details: Gas, Burnett expansion method

C=C(F)C(F)(F)F [2,3,3,3-tetrafluoro-1-propene] + FCF
Details	mass density [kg/m3]
333.59 K, 860.21 kPa, x2 = 0.698	23.99
333.59 K, 1119 kPa, x2 = 0.259	46.7
333.59 K, 1128.1 kPa, x2 = 0.449	40.52
333.59 K, 1537.9 kPa, x2 = 0.259	70.09
333.6 K, 552.32 kPa, x2 = 0.874	12.52
333.6 K, 589.81 kPa, x2 = 0.698	15.97
333.61 K, 804.94 kPa, x2 = 0.874	18.8
333.61 K, 1164.8 kPa, x2 = 0.874	28.24
333.61 K, 1308.2 kPa, x2 = 0.119	63.18
333.64 K, 1653.6 kPa, x2 = 0.874	42.42
338.52 K, 549.73 kPa, x2 = 0.449	17.96
338.52 K, 1260 kPa, x2 = 0.698	36.03
338.52 K, 1772.2 kPa, x2 = 0.698	54.11
338.52 K, 2408.6 kPa, x2 = 0.698	81.28
338.53 K, 875.76 kPa, x2 = 0.698	23.99
338.53 K, 960.84 kPa, x2 = 0.119	42.01
338.53 K, 1150.8 kPa, x2 = 0.449	40.51
338.53 K, 2177.3 kPa, x2 = 0.449	91.55
338.54 K, 554.13 kPa, x2 = 0.259	20.7
338.54 K, 801.95 kPa, x2 = 0.449	26.97
338.54 K, 1788.2 kPa, x2 = 0.119	94.94
338.54 K, 2337.3 kPa, x2 = 0.874	63.7
338.54 K, 3099.5 kPa, x2 = 0.698	122
338.54 K, 3099.9 kPa, x2 = 0.874	96.05
338.54 K, 3850.5 kPa, x2 = 0.874	144.78
338.55 K, 671.73 kPa, x2 = 0.119	27.97
338.55 K, 1615.3 kPa, x2 = 0.449	60.93
338.55 K, 1689.4 kPa, x2 = 0.874	42.41
338.56 K, 599.87 kPa, x2 = 0.698	15.97
338.56 K, 803.81 kPa, x2 = 0.259	31.09
338.56 K, 1143.1 kPa, x2 = 0.259	46.69
338.56 K, 1187 kPa, x2 = 0.874	28.23
338.56 K, 1577.4 kPa, x2 = 0.259	70.08
338.56 K, 2083.1 kPa, x2 = 0.259	105.4
338.57 K, 819.08 kPa, x2 = 0.874	18.8
338.57 K, 1339.9 kPa, x2 = 0.119	63.15
338.61 K, 561.65 kPa, x2 = 0.874	12.52
343.46 K, 1811.6 kPa, x2 = 0.698	54.1
343.47 K, 558.86 kPa, x2 = 0.449	17.95
343.47 K, 2473.8 kPa, x2 = 0.698	81.25
343.48 K, 1650.8 kPa, x2 = 0.449	60.9
343.48 K, 3195 kPa, x2 = 0.874	95.98
343.49 K, 609.66 kPa, x2 = 0.698	15.97
343.49 K, 980.04 kPa, x2 = 0.119	42
343.49 K, 1173.6 kPa, x2 = 0.449	40.5
343.49 K, 1284.8 kPa, x2 = 0.698	36.02
343.5 K, 815.99 kPa, x2 = 0.449	26.96
343.5 K, 1724.4 kPa, x2 = 0.874	42.4
343.5 K, 1840.8 kPa, x2 = 0.119	94.9
343.5 K, 2238.7 kPa, x2 = 0.449	91.51
343.5 K, 2312 kPa, x2 = 0.119	142.7
343.5 K, 3209.6 kPa, x2 = 0.698	121.97
343.51 K, 683.81 kPa, x2 = 0.119	27.96
343.51 K, 891.35 kPa, x2 = 0.698	23.98
343.51 K, 1370.9 kPa, x2 = 0.119	63.13
343.51 K, 1616.3 kPa, x2 = 0.259	70.08
343.51 K, 2395 kPa, x2 = 0.874	63.68
343.51 K, 2864.8 kPa, x2 = 0.449	137.45
343.51 K, 4012.3 kPa, x2 = 0.874	144.62
343.52 K, 1167 kPa, x2 = 0.259	46.68
343.52 K, 2146.2 kPa, x2 = 0.259	105.38
343.54 K, 563.91 kPa, x2 = 0.259	20.69
343.54 K, 833.17 kPa, x2 = 0.874	18.79
343.54 K, 1209.2 kPa, x2 = 0.874	28.23
343.55 K, 818.98 kPa, x2 = 0.259	31.08
343.56 K, 570.8 kPa, x2 = 0.874	12.51
348.39 K, 1850.8 kPa, x2 = 0.698	54.08
348.42 K, 568.01 kPa, x2 = 0.449	17.95
348.42 K, 1308.9 kPa, x2 = 0.698	36.01
348.42 K, 2538.2 kPa, x2 = 0.698	81.23
348.43 K, 695.54 kPa, x2 = 0.119	27.95
348.43 K, 1196 kPa, x2 = 0.449	40.49
348.43 K, 3289.2 kPa, x2 = 0.874	95.91
348.44 K, 619.54 kPa, x2 = 0.698	15.96
348.45 K, 906.67 kPa, x2 = 0.698	23.97
348.45 K, 999.4 kPa, x2 = 0.119	41.99
348.45 K, 1401.8 kPa, x2 = 0.119	63.11
348.45 K, 1687.6 kPa, x2 = 0.449	60.87
348.45 K, 1759.4 kPa, x2 = 0.874	42.38
348.45 K, 1892.6 kPa, x2 = 0.119	94.85
348.45 K, 2299.3 kPa, x2 = 0.449	91.46
348.45 K, 2405.8 kPa, x2 = 0.119	142.61
348.45 K, 3317.7 kPa, x2 = 0.698	121.94
348.46 K, 573.31 kPa, x2 = 0.259	20.69
348.46 K, 830.53 kPa, x2 = 0.449	26.96
348.46 K, 1654.8 kPa, x2 = 0.259	70.07
348.46 K, 2452 kPa, x2 = 0.874	63.66
348.46 K, 2967.9 kPa, x2 = 0.449	137.38
348.47 K, 833.57 kPa, x2 = 0.259	31.08
348.47 K, 847.11 kPa, x2 = 0.874	18.79
348.47 K, 1190.6 kPa, x2 = 0.259	46.68
348.47 K, 2210.4 kPa, x2 = 0.259	105.36
348.47 K, 4171.1 kPa, x2 = 0.874	144.45
348.48 K, 1231.2 kPa, x2 = 0.874	28.22
348.51 K, 579.9 kPa, x2 = 0.874	12.51
353.35 K, 1889.8 kPa, x2 = 0.698	54.07
353.37 K, 1218.4 kPa, x2 = 0.449	40.48
353.37 K, 2601.9 kPa, x2 = 0.698	81.21
353.38 K, 577.17 kPa, x2 = 0.449	17.94
353.38 K, 1943.6 kPa, x2 = 0.119	94.8
353.38 K, 3382.4 kPa, x2 = 0.874	95.84
353.39 K, 629.39 kPa, x2 = 0.698	15.96
353.39 K, 707.68 kPa, x2 = 0.119	27.94
353.39 K, 922.11 kPa, x2 = 0.698	23.97
353.39 K, 1432.5 kPa, x2 = 0.119	63.08
353.39 K, 1723.8 kPa, x2 = 0.449	60.85
353.39 K, 2359.1 kPa, x2 = 0.449	91.42
353.39 K, 3068.7 kPa, x2 = 0.449	137.31
353.4 K, 582.53 kPa, x2 = 0.259	20.69
353.4 K, 844.78 kPa, x2 = 0.449	26.95
353.4 K, 1018.6 kPa, x2 = 0.119	41.97
353.4 K, 1333.5 kPa, x2 = 0.698	36
353.4 K, 1794.1 kPa, x2 = 0.874	42.37
353.4 K, 2493.2 kPa, x2 = 0.119	142.52
353.4 K, 2508.3 kPa, x2 = 0.874	63.64
353.4 K, 3424.3 kPa, x2 = 0.698	121.92
353.41 K, 1213.9 kPa, x2 = 0.259	46.67
353.41 K, 1693 kPa, x2 = 0.259	70.07
353.41 K, 2895.5 kPa, x2 = 0.259	158.94
353.41 K, 4232.8 kPa, x2 = 0.698	183.2
353.41 K, 4326.6 kPa, x2 = 0.874	144.29
353.42 K, 848.3 kPa, x2 = 0.259	31.07
